Laboratory results taken from patent US5767116A, “Bicyclic aromatic compounds as therapeutic agents” (Knoll Atkiengesellschaft, priority 1993, dated 1998).
Structures can show the parent of a compound that is named as a salt. Where two headings read alike, the source gives them in different places.

Key:
5-HT1A receptors = target: T1, 5-HT1A receptors (Rattus norvegicus, UniProt P19327); test: biochemical; assay type: binding, rat (male Charles River CD)
T1 sequence (P19327 1-422): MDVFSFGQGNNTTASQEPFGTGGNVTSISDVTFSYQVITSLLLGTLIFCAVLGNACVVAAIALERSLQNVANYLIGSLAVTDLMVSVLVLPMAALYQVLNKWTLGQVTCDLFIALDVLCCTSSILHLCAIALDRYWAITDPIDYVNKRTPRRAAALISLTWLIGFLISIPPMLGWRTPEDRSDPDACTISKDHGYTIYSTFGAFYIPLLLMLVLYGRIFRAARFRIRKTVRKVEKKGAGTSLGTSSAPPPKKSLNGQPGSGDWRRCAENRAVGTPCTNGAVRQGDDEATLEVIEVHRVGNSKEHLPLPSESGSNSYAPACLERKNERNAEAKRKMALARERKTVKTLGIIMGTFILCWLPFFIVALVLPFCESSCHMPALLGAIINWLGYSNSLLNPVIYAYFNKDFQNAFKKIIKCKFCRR
Experimental: The pellet was rehomogenised in the same buffer, incubated at 37° C. for 10 minutes and centrifuged at 30,000 g at 4° C. for 10 minutes. […] Aliquots (400 μl; equivalent to 2.5 mg wet weight of tissue/tube) of this suspension were added to tubes containing the ligand (50 μl; 2 nM) and distilled water (50 μl; total binding) or 5-HT (50 μl; 10 µM; non-specific binding) or test compound (50 μl; at a single concentration of 10^-6 M or at 10 concentrations ranging from 10^-11 -10^-3 M). The ligand was [^3 H]8-hydroxy-2-(dipropylamino)tetralin([^3 H]8-OH-DPAT) and the mixture was incubated at 25° C. for 30 minutes before the incubation was terminated by rapid filtration.
(§1) The filters were punched out into vials, scintillation fluid added and radioactivity determined by liquid scintillation counting. The percentage displacement of specific binding of the tritiated ligand was calculated for the single concentration (10^-6 M) of test compound. Displacement curves were then produced for those compounds which displaced ≥50% of specific binding of the tritiated ligand at 10^-6 M using a range of concentrations of the compound. […] The inhibition coefficient Ki was then calculated using the formula [formula] in which [ligand] is the concentration of the tritiated ligand used and KD is the equilibrium dissociation constant for the ligand.

α1-adrenoceptors = test: inhibition of tritiated ligand ([7-methoxy-^3 H]prazosin) binding to α1-adrenoceptors in vitro (whole cortical tissue); design: species or system rat (male Charles River CD); conditions: rat whole cortical tissue; for Ki: 30° C., 30 minutes, > from highest concentration which displaced ≤50% of the ligand; for % displacement at 10^-6 M, α1: 30 min, 1 µM
Experimental: The supernatant was centrifuged at 30,000 g at 4° C. for 10 minutes. […] Aliquots (400 μl; equivalent to 5 mg wet weight of tissue/tube) of this suspension were added to tubes containing the ligand (50 μl; 0.1 nM) and distilled water (50 μl; total binding) or phentolamine (50 μl; 5 μM; non-specific binding) or test compound (50 μl; at a single concentration of 10^-6 M or at 10 concentrations ranging from 10^-11 -10^-3 M). The ligand was [7-methoxy-^3 H]prazosin and the mixture was incubated at 30° C. for 30 minutes before the incubation was terminated by rapid filtration.
as §1

α2-adrenoceptors = target: T2, α2-adrenoceptors (Rattus norvegicus, UniProt P22909); test: inhibition of tritiated ligand (tritiated idazoxan) binding to α2-adrenoceptors in vitro (frontal cortical tissue); design: species or system rat (male Charles River CD); conditions: for Ki: 0° C., 75 minutes, > from highest concentration which displaced ≤50% of the ligand
T2 sequence (P22909 1-465): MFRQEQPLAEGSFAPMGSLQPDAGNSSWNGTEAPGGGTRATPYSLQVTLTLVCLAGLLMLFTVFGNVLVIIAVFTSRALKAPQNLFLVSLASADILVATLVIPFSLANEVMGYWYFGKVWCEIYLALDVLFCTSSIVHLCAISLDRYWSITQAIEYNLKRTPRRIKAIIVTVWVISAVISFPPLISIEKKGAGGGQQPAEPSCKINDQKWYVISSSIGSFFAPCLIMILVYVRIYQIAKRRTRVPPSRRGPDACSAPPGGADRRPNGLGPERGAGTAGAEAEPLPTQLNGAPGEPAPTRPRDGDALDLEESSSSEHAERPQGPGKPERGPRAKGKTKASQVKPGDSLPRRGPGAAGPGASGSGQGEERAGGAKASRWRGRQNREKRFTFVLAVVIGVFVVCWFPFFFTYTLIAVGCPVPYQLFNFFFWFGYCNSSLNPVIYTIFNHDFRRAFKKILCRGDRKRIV
Experimental: Frontal cortical tissue from the brains of male Charles River CD rats weighing between 150-250 g were homogenised in ice-cold 0.25M sucrose (1:30 w/v) and centrifuged at 1,000 g at 4° C. for 12 minutes. The supernatant was stored on ice and the pellet was rehomogenised in 0.25M sucrose (1:15 w/v) and centrifuged at 850 g at 4° C. for 12 minutes. Combined supernatants were diluted with 5 mM Tris-HCl (pH 7.5) containing 0.5M ethylenediamine tetraacetic acid (EDTA) readjusted to pH 7.5 (at 25° C.) with 1M sodium hydroxide to 1:80 w/v, and centrifuged at 30,000 g at 4° C. for 10 minutes. The resulting pellet was resuspended in 5 mM Tris-HCl (pH 7.5) containing 5.68 mM L-ascorbic acid and 5 mM EDTA readjusted to pH 7.5 (at 25° C.) with 1M sodium hydroxide, and centrifuged at 30,000 g for 10 minutes. The final pellet was resuspended in 50 mM Tris-HCl (pH 7.5) containing 5.68 mM L-ascorbic acid and 5 mM EDTA (equivalent to 12.5 mg wet weight of tissue/ml) and used immediately in the binding assay. Aliquots (400 μl; equivalent to 5 mg wet weight of tissue/tube) of this suspension were added to tubes containing the ligand (50 μl; 1 nM) and distilled water (50 μl; total binding) or phentolamine (50 μl; 5 μM; non-specificbinding) or test compound (50 μl; at a single concentration of 10^-6 M or at 10 concentrations ranging from 10^-11 -10^-3 M). The ligand was tritiated idazoxan ((1,4-[6,7(n)-^3 H]benzodioxan-2-yl)-2-imidazoline hydrochloride) and the mixture was incubated at 0° C. for 75 minutes before the incubation was terminated by rapid filtration.
as §1, with “The filters were washed with ice-cold Tris-HCl buffer and dried. The filters” for “The filters”

D2 dopamine receptors = D2 dopamine receptors (Rattus norvegicus, UniProt P61169); test: biochemical; assay type: binding, rat (male Charles River CD); conditions: rat striatal tissue, tritiated (S)-sulpiride, 4° C., 40 minutes
D2 dopamine receptors, sequence (P61169 whole entry): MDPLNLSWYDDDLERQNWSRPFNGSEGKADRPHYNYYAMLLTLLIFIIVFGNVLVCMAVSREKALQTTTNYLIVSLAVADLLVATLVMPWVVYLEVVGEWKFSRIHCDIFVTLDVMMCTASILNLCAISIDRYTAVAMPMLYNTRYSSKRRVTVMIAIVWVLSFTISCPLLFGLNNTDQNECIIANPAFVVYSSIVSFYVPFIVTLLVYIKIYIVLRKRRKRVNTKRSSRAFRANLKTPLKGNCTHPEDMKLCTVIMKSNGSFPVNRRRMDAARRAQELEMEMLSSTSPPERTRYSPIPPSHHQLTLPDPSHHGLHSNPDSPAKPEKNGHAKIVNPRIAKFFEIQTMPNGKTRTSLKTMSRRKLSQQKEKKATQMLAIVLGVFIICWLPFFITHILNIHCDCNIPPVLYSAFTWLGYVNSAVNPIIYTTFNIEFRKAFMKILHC

[1] = 10^-6 M, rat hippocampal tissue, [^3 H]8-OH-DPAT
[2] = rat frontal cortical tissue, tritiated idazoxan
[3] = read-out: % displacement at 10^-6 M, 5-HT1A, 10^-6 M, rat hippocampal tissue, [^3 H]8-OH-DPAT
[4] = read-out: % displacement at 10^-6 M, α2, 10^-6 M, rat frontal cortical tissue, tritiated idazoxan
[5] = 10^-6 M, rat hippocampal tissue, [^3 H]8-OH-DPAT, read-out: % displacement at 10^-6 M, 5-HT1A
[6] = 10^-6 M, rat frontal cortical tissue, tritiated idazoxan, read-out: % displacement at 10^-6 M, α2

Molecule | Ki (α2-adrenoceptors; [2]) [nM] | inhibition at 1 µM (5-HT1A receptors; [3]) [%] | % displacement at 10^-6 M, α1 (α1-adrenoceptors) [%] | inhibition at 1 µM (α2-adrenoceptors; [4]) [%] | inhibition at 1 µM (5-HT1A receptors; [5]) [%] | further results
N-(7-chloro-1,4-benzodioxan-2-ylmethyl)-1-[1-(2-methoxyphenyl) piperid-4-yl]methylamine and N-(6-chloro-1,4-benzodioxan-2-ylmethyl)-1-[1-(2-methoxyphenyl) piperid-4-yl]methylamine hydrochloride hydrate [Example 26] | > 500 |  |  |  |  | % displacement at 10^-6 M, 5-HT1A (5-HT1A receptors; [1]): 88%; Ki (α1-adrenoceptors): > 500 nM; Ki (D2 dopamine receptors): 82.5 nM
Cl.Cl.c1ccc(N2CCC(CNCC3COc4ccccc4O3)CC2)nc1 (single isomer, unassigned; (-)) [Example 19, (-)-N-(1,4-benzodioxan-2-ylmethyl)-1-[1-(pyrid-2-yl)piperid-4-yl]methylamine dihydrochloride] |  | 98 | 98 | 96 |  | 
N-(7-chloro-1,4-benzodioxan-2-ylmethyl)-1-[1-(2-methoxyphenyl) piperid-4-yl]methylamine and N-(6-chloro-1,4-benzodioxan-2-ylmethyl)-1-[1-(2-methoxy phenyl)-piperid-4-yl]methylamine 1.7 hydrochloride hydrate [Example 27] | > 500 |  | 58 |  |  | % displacement at 10^-6 M, 5-HT1A (5-HT1A receptors; [1]): 94%; Ki (D2 dopamine receptors): 61.7 nM
Cl.Cl.c1ccc2c(c1)OCC(CNCC1CCN(c3cccc4c3OCCO4)CC1)O2 (stereo not shown) [Example 13, N-(1,4-benzodioxan-2-ylmethyl)-1-[1-(1,4-benzodioxan-5-yl)piperid-4-yl]methylamine dihydrochloride] |  | 100 | 93 | 66 |  | 
c1ccc(N2CCC(CNCC3COc4ccccc4O3)CC2)nc1 (single isomer, unassigned; (+)) [Example 20, (+)-N-(1,4-benzodioxan-2-ylmethyl)-1-[1-pyrid-2-yl)piperid-4-yl]methylamine dihydrochloride] |  |  | 94 |  | 82 | inhibition at 1 µM (α2-adrenoceptors; [6]): 91%
COc1ccccc1N1CCC(CNC[C@H]2COc3ccccc3O2)CC1 [Example 7, (S)-(-)-N-(1,4-benzodioxan-2-ylmethyl)-1-[1-(2-methoxyphenyl)-piperid-4-yl]methylamine] |  |  | 94 |  | 96 | inhibition at 1 µM (α2-adrenoceptors; [6]): 72%
COc1ccc(N2CCC(CNCC3COc4ccccc4O3)CC2)cc1.Cl.Cl (stereo not shown) [Example 16, N-(1,4-benzodioxan-2-ylmethyl)-1-[1-(4-methoxyphenyl)piperid-4-yl]methylamine dihydrochloride] |  | 98 | 94 | 64 |  | 
Cl.Cl.c1ccc(N2CCC(CNCC3COc4ccccc4O3)CC2)cc1 (stereo not shown) [Example 12, N-(1,4-benzodioxan-2-ylmethyl)-1-(1-phenylpiperid-4-yl)methylamine dihydrochloride] |  | 97 | 89 | 66 |  | 
COc1cccc(N2CCC(CNCC3COc4ccccc4O3)CC2)c1 (stereo not shown) [Example 18, N-(1,4-benzodioxan-2-ylmethyl)-1-[1-(3-methoxyphenyl)piperid-4-yl]methylamine hydrochloride] | 242 |  |  |  |  | Ki (5-HT1A receptors; rat hippocampal tissue, [^3 H]8-OH-DPAT, 25° C., 30 minutes): 7 nM
COc1ccccc1N1CCC(CNCC2COc3cccc(O)c3O2)CC1 (stereo not shown) [Example 28, N-(8-hydroxy-1,4-benzodioxan-2-ylmethyl) -1-[1-(2-methoxyphenyl)piperid-4-yl]methylamine] | > 500 |  |  |  | 94 | Ki (α1-adrenoceptors): > 500 nM
COc1ccccc1N1CCC(CNC[C@@H]2COc3ccccc3O2)CC1 [Example 14, (R)-(+)-N-(1,4-benzodioxan-2-ylmethyl)-1-[1-(2-methoxyphenyl)piperid-4-yl]methylamine] | > 500 |  | 57 |  | 87 | 
COc1ccccc1NCC1CCN(CC2COc3ccccc3O2)CC1.O=C(O)C(=O)O (stereo not shown) [Example 15, 1-[1-(1,4-benzodioxan-2-ylmethyl)piperid-4-yl]-N-(2-methoxyphenyl)methylamine mono-oxalate] |  | 97 | 94 | 94 |  | 
